Where two headings read alike, the source gives them in different places.
How the values were obtained:
Assay in all cases: Microculture tetrazolium assay
Type in all cases: cell-based
LOX = tested on: LOX
HT29 = conditions: Homo sapiens, HT-29, HT29; read-out: IC50
SKOV3 = conditions: Homo sapiens, SK-OV-3, SKOV3; read-out: IC50
SKVLB = conditions: for VLB/OV3: IC50 ratio SKVLB/SKOV3; for IC50: SKVLB, read-out: IC50
T47D = conditions: Homo sapiens, read-out: IC50

Structure (SMILES) | IC50 (LOX; read-out: IC50) | IC50 (HT29) | IC50 (SKOV3) | VLB/OV3 (SKVLB) | IC50 (SKVLB) | IC50 (T47D) | IC50 (LOX)
CC(=O)[C@H]1CC2=C(C(=O)c3cc4ccccc4c(O)c3C2=O)[C@H](O[C@H]2C[C@H](O)[C@H](O)[C@H](C)O2)O1 [BCH-1123, (1'S,1S,3R)-Methyl-[6-hydroxy-1-(2',3',6'-trideoxy-3',4'-dihydroxy-L-lyxohexopyranose)-5,12-dioxo-3,4,5,12-tetrahydroanthraceno(2,3-C)pyran-3-yl]ketone] | 1.22 µM | 0.436 µM | 1.41 µM | 0.92 | 1.3 µM | 3.84 µM | –
CC(=O)[C@@H]1CC2=C(C(=O)c3cc4ccccc4c(O)c3C2=O)[C@@H](O[C@H]2C[C@H](O)[C@H](O)[C@H](C)O2)O1 [BCH-1124, (1'S,1R,3S)-Methyl-[6-hydroxy-1-(2',3',6'-trideoxy-3',4'-dihydroxy-L-lyxohexopyranose)-5,12-dioxo-2,3,5,12-tetrahydroxyanthraceno(2,3-C)pyran-3-yl]ketone] | – | 1.46 µM | 4.98 µM | 0.44 | 2.17 µM | 6.05 µM | 1.88 µM
C[C@@H]1O[C@@H](O[C@H]2O[C@H](C(=O)COC(=O)C(C)(C)C)CC3=C2C(=O)c2cc4ccccc4c(O)c2C3=O)C[C@H](NC(=O)C(F)(F)F)[C@@H]1O [BCH-1136, (1'S,1R,3S)-1,2,3,4,5,12-hexahydro-6-hydroxy-3-trimethylacetoxyaceto-1-N-trifluoroacetyl-L-daunosamine-(2-oxo)-naphthacene-5,12-dione] | 12.3 µM | 11.5 µM | 18 µM | 1.28 | 23.1 µM | 18.9 µM | –
C[C@@H]1O[C@@H](O[C@@H]2O[C@@H](C(=O)COC(=O)C(C)(C)C)CC3=C2C(=O)c2cc4ccccc4c(O)c2C3=O)C[C@H](NC(=O)C(F)(F)F)[C@@H]1O [BCH-1137, (1'S,1S,3R)-1,2,3,4,5,12-hexahydro-6-hydroxy-3-trimethylacetoxyaceto-1-N-trifluoroacetyl-L-daunosamine-(2-oxo) naphthacene-5,12-dione] | 8.88 µM | 6.37 µM | 13.7 µM | 1.03 | 14.1 µM | 8.4 µM | –
COC(=O)C1CC2=C(CS1)C(=O)c1cc3ccccc3c(O)c1C2=O (stereo not shown) [BCH-1149] | 25.3 µM | 29.7 µM | 30 µM | 1.38 | 41.5 µM | 38.5 µM | –
COC(=O)C1CC2=C(CS1)C(=O)c1c(cc3ccccc3c1O)C2=O (stereo not shown) [BCH-1150] | 84.6 µM | 64.1 µM | 100 µM | – | 100 µM | 78.3 µM | –
CC(=O)C1CC2=C(CS1)C(=O)c1cc3ccccc3c(O)c1C2=O (stereo not shown) [BCH-1151] | 30.5 µM | 58.9 µM | 53.3 µM | 1.41 | 75 µM | 62.5 µM | –
CC(=O)C1CC2=C(CS1)C(=O)c1c(cc3ccccc3c1O)C2=O (stereo not shown) [BCH-1152] | 100 µM | 100 µM | 100 µM | – | 100 µM | 100 µM | –
C[C@@H]1O[C@@H](O[C@H]2O[C@H](C3(CO)OCCCO3)CC3=C2C(=O)c2cc4ccccc4c(O)c2C3=O)C[C@H](N)[C@@H]1O [BCH-1153] | 2.9 µM | 2.94 µM | 3.02 µM | 4.93 | 14.9 µM | 4.65 µM | –
C[C@@H]1O[C@@H](O[C@@H]2O[C@@H](C3(CO)OCCCO3)CC3=C2C(=O)c2cc4ccccc4c(O)c2C3=O)C[C@H](N)[C@@H]1O [BCH-1154] | 3.74 µM | 8.55 µM | 8.94 µM | 3.18 | 28.4 µM | 14.2 µM | –
C=C[C@H]1CC2=C(C(=O)c3cc4ccccc4c(O)c3C2=O)[C@H](O[C@H]2C[C@H](NC(=O)C(F)(F)F)[C@H](O)[C@H](C)O2)O1 [BCH-1155] | 3.97 µM | 8.8 µM | 6.25 µM | 1.12 | 7.01 µM | 8.5 µM | –

Reference: patent publication US5593970A, “Heterocyclic anthracycline analogs” (priority 1994, dated 1997)
